Source: patent US20180200257A1, “METHODS FOR THE TREATMENT OF INFLAMMATORY DISORDERS” (Galapagos NV, priority 2015, published 2018)

System: subjects with moderately to severely active RA who have an inadequate response to methotrexate (MTX)
Assay: Study 1 (add-on to MTX) - Subject VAS mean changes (ACR patient assessment)
Type: in vivo, human
Protocol: The scale is 100 mm, the decrease in mm is shown. […] (dotted line), 100 mg q.d. (dashed line) or 200 mg q.d. (dark solid line). […] The results shown in the figures are calculated using Last-Observation-Carried-Forward (LOCF), which handles missing data by assigning the value recorded at the patient's last visit to all subsequent missed visits.
Double-blind, placebo-controlled add on study in subjects with moderately to severely active RA who have an inadequate response to methotrexate (MTX) (oral or parenteral).
595 subjects randomized to one of 6 dose regimens of Compound 1 (dosed as [Compound 1:HCl:3H2O]) (3 dose levels administered either once or twice daily) or placebo on top of each subject's stable dose of MTX.
Compound 1 (dosed as [Compound 1:HCl:3H2O]) is dosed for twelve weeks once daily (q.d.) (50 mg, 100 mg or 200 mg) or twice daily (b.i.d.) (25 mg, 50 mg or 100 mg); or placebo.
At Week 12, the subjects on placebo who have not achieved 20% improvement in swollen joint count (SJC66) and tender joint count (TJC68) are re-randomized automatically to receive Compound 1 (dosed as a [Compound 1:HCl:3H2O]) either at 100 mg q.d. or 50 mg b.i.d. doses in a blinded fashion; subjects on 50 mg q.d. who have not achieved 20% improvement in SJC66 and TJC68 will be assigned to 100 mg q.d. and subjects on 25 mg b.i.d. that have not achieved a 20% improvement in SJC66 and TJC68 will be assigned to 50 mg b.i.d. Subjects who switch treatment at week 12 are handled as if they discontinued at week 12 for the purpose of statistical analysis, whereas subjects in the other groups will maintain their randomized treatment until Week 24.
Firstly, the patient is asked to make a vertical mark on a 100 mm Visual Analog Scale (VAS) corresponding to their general health or global disease activity on a touch screen to measure the VAS value, which is used in the formula below.
The American College of Rheumatology (ACR) composite score, which evaluates clinical improvement relative to an initial assessment, is a commonly accepted efficacy end point for clinical trials in patients with rheumatoid arthritis. The ACR score correspond to a percentage improvement in pre-set parameters, and therefore measures the evolution of the disease in a patient. For example, ACR20 denotes at least 20% improvement in tender and swollen joint counts and in three of the following end points: global assessment by the patient, global assessment by the doctor, C reactive protein (CRP), patient's pain Visual Analogue Scale and Health Assessment Questionnaire Score. The number of swollen joints, ESR and CRP correlate with radiographic progression of joint damage, whereas tender joint counts, as well as global assessments by doctors and patients, and patients' reports of pain, are sensitive to change in clinical outcomes. Physical function, as assessed by the Health Assessment Questionnaire Score, is a potent predictor of the risk of disability in rheumatoid arthritis (Felson and American College of Rheumatology Committee to Reevaluate Improvement Criteria, 2007; Felson et al., 1993).

Compound: O=C(Nc1nc2cccc(-c3ccc(CN4CCS(=O)(=O)CC4)cc3)n2n1)C1CC1 [Compound 1, cyclopropanecarboxylic acid {5-[4-(1,1-dioxo-thiomorpholin-4-ylmethyl)-phenyl]-[1,2,4]triazolo[1,5-a]pyridin-2-yl}-amide]
- Subject VAS mean changes (ACR patient assessment) (50 mg q.d., week 0, LOCF, 24 weeks results): 0.0
- Subject VAS mean changes (ACR patient assessment) (50 mg q.d., week 2, LOCF, 24 weeks results): −15.5
- Subject VAS mean changes (ACR patient assessment) (50 mg q.d., week 4, LOCF, 24 weeks results): −20.9
- Subject VAS mean changes (ACR patient assessment) (50 mg q.d., week 8, LOCF, 24 weeks results): −26.4
- Subject VAS mean changes (ACR patient assessment) (50 mg q.d., week 12, LOCF, 24 weeks results): −25.2
- Subject VAS mean changes (ACR patient assessment) (50 mg q.d., week 16, LOCF, 24 weeks results): −27.7
- Subject VAS mean changes (ACR patient assessment) (50 mg q.d., week 20, LOCF, 24 weeks results): −28.1
- Subject VAS mean changes (ACR patient assessment) (50 mg q.d., week 24, LOCF, 24 weeks results): −29.4
- Subject VAS mean changes (ACR patient assessment) (50 mg q.d., week 0, LOCF, 12 weeks results): 0.0
- Subject VAS mean changes (ACR patient assessment) (50 mg q.d., week 1, LOCF, 12 weeks results): −11.2
- Subject VAS mean changes (ACR patient assessment) (50 mg q.d., week 2, LOCF, 12 weeks results): −15.5
- Subject VAS mean changes (ACR patient assessment) (50 mg q.d., week 4, LOCF, 12 weeks results): −20.9
- Subject VAS mean changes (ACR patient assessment) (50 mg q.d., week 8, LOCF, 12 weeks results): −26.4
- Subject VAS mean changes (ACR patient assessment) (50 mg q.d., week 12, LOCF, 12 weeks results): −25.2
- Subject VAS mean changes (ACR patient assessment) (100 mg q.d., week 0, LOCF, 24 weeks results): 0.0
- Subject VAS mean changes (ACR patient assessment) (100 mg q.d., week 2, LOCF, 24 weeks results): −20.9
- Subject VAS mean changes (ACR patient assessment) (100 mg q.d., week 4, LOCF, 24 weeks results): −24.4
- Subject VAS mean changes (ACR patient assessment) (100 mg q.d., week 8, LOCF, 24 weeks results): −29.8
- Subject VAS mean changes (ACR patient assessment) (100 mg q.d., week 12, LOCF, 24 weeks results): −29.1
- Subject VAS mean changes (ACR patient assessment) (100 mg q.d., week 16, LOCF, 24 weeks results): −31.7
- Subject VAS mean changes (ACR patient assessment) (100 mg q.d., week 20, LOCF, 24 weeks results): −35.1
- Subject VAS mean changes (ACR patient assessment) (100 mg q.d., week 24, LOCF, 24 weeks results): −34.4
- Subject VAS mean changes (ACR patient assessment) (100 mg q.d., week 0, LOCF, 12 weeks results): 0.0
- Subject VAS mean changes (ACR patient assessment) (100 mg q.d., week 1, LOCF, 12 weeks results): −13.2
- Subject VAS mean changes (ACR patient assessment) (100 mg q.d., week 2, LOCF, 12 weeks results): −20.8
- Subject VAS mean changes (ACR patient assessment) (100 mg q.d., week 4, LOCF, 12 weeks results): −24.4
- Subject VAS mean changes (ACR patient assessment) (100 mg q.d., week 8, LOCF, 12 weeks results): −29.8
- Subject VAS mean changes (ACR patient assessment) (100 mg q.d., week 12, LOCF, 12 weeks results): −29.1
- Subject VAS mean changes (ACR patient assessment) (200 mg q.d., week 0, LOCF, 24 weeks results): 0.0
- Subject VAS mean changes (ACR patient assessment) (200 mg q.d., week 2, LOCF, 24 weeks results): −21.8
- Subject VAS mean changes (ACR patient assessment) (200 mg q.d., week 4, LOCF, 24 weeks results): −24.9
- Subject VAS mean changes (ACR patient assessment) (200 mg q.d., week 8, LOCF, 24 weeks results): −29.6
- Subject VAS mean changes (ACR patient assessment) (200 mg q.d., week 12, LOCF, 24 weeks results): −34.2
- Subject VAS mean changes (ACR patient assessment) (200 mg q.d., week 16, LOCF, 24 weeks results): −32.9
- Subject VAS mean changes (ACR patient assessment) (200 mg q.d., week 20, LOCF, 24 weeks results): −33.0
- Subject VAS mean changes (ACR patient assessment) (200 mg q.d., week 24, LOCF, 24 weeks results): −34.9
- Subject VAS mean changes (ACR patient assessment) (200 mg q.d., week 0, LOCF, 12 weeks results): 0.0
- Subject VAS mean changes (ACR patient assessment) (200 mg q.d., week 1, LOCF, 12 weeks results): −16.7
- Subject VAS mean changes (ACR patient assessment) (200 mg q.d., week 2, LOCF, 12 weeks results): −21.8
- Subject VAS mean changes (ACR patient assessment) (200 mg q.d., week 4, LOCF, 12 weeks results): −25.2
- Subject VAS mean changes (ACR patient assessment) (200 mg q.d., week 8, LOCF, 12 weeks results): −29.6
- Subject VAS mean changes (ACR patient assessment) (200 mg q.d., week 12, LOCF, 12 weeks results): −34.0
- Subject VAS mean changes (ACR patient assessment) (2 × 25 mg b.i.d., week 0, LOCF, 12 weeks results): 0.0
- Subject VAS mean changes (ACR patient assessment) (2 × 25 mg b.i.d., week 0, LOCF, 24 weeks results): 0.0
- Subject VAS mean changes (ACR patient assessment) (2 × 25 mg b.i.d., week 1, LOCF, 12 weeks results): −8.2
- Subject VAS mean changes (ACR patient assessment) (2 × 25 mg b.i.d., week 2, LOCF, 12 weeks results): −11.7
- Subject VAS mean changes (ACR patient assessment) (2 × 25 mg b.i.d., week 2, LOCF, 24 weeks results): −11.7
- Subject VAS mean changes (ACR patient assessment) (2 × 25 mg b.i.d., week 4, LOCF, 12 weeks results): −16.0
- Subject VAS mean changes (ACR patient assessment) (2 × 25 mg b.i.d., week 4, LOCF, 24 weeks results): −16.0
- Subject VAS mean changes (ACR patient assessment) (2 × 25 mg b.i.d., week 8, LOCF, 12 weeks results): −22.2
- Subject VAS mean changes (ACR patient assessment) (2 × 25 mg b.i.d., week 8, LOCF, 24 weeks results): −22.2
- Subject VAS mean changes (ACR patient assessment) (2 × 25 mg b.i.d., week 12, LOCF, 12 weeks results): −25.2
- Subject VAS mean changes (ACR patient assessment) (2 × 25 mg b.i.d., week 12, LOCF, 24 weeks results): −25.2
- Subject VAS mean changes (ACR patient assessment) (2 × 25 mg b.i.d., week 16, LOCF, 24 weeks results): −25.5
- Subject VAS mean changes (ACR patient assessment) (2 × 25 mg b.i.d., week 20, LOCF, 24 weeks results): −25.6
- Subject VAS mean changes (ACR patient assessment) (2 × 25 mg b.i.d., week 24, LOCF, 24 weeks results): −27.3
- Subject VAS mean changes (ACR patient assessment) (2 × 50 mg b.i.d., week 0, LOCF, 12 weeks results): 0.0
- Subject VAS mean changes (ACR patient assessment) (2 × 50 mg b.i.d., week 1, LOCF, 12 weeks results): −8.8
- Subject VAS mean changes (ACR patient assessment) (2 × 50 mg b.i.d., week 2, LOCF, 12 weeks results): −13.6
- Subject VAS mean changes (ACR patient assessment) (2 × 50 mg b.i.d., week 2, LOCF, 24 weeks results): −13.8
- Subject VAS mean changes (ACR patient assessment) (2 × 50 mg b.i.d., week 4, LOCF, 12 weeks results): −16.9
- Subject VAS mean changes (ACR patient assessment) (2 × 50 mg b.i.d., week 4, LOCF, 24 weeks results): −16.9
- Subject VAS mean changes (ACR patient assessment) (2 × 50 mg b.i.d., week 8, LOCF, 12 weeks results): −21.0
- Subject VAS mean changes (ACR patient assessment) (2 × 50 mg b.i.d., week 8, LOCF, 24 weeks results): −21.0
- Subject VAS mean changes (ACR patient assessment) (2 × 50 mg b.i.d., week 12, LOCF, 12 weeks results): −27.0
- Subject VAS mean changes (ACR patient assessment) (2 × 50 mg b.i.d., week 12, LOCF, 24 weeks results): −27.0
- Subject VAS mean changes (ACR patient assessment) (2 × 50 mg b.i.d., week 16, LOCF, 24 weeks results): −26.3
- Subject VAS mean changes (ACR patient assessment) (2 × 50 mg b.i.d., week 20, LOCF, 24 weeks results): −29.7
- Subject VAS mean changes (ACR patient assessment) (2 × 50 mg b.i.d., week 24, LOCF, 24 weeks results): −28.1
- Subject VAS mean changes (ACR patient assessment) (2 × 100 mg b.i.d., week 0, LOCF, 12 weeks results): 0.0
- Subject VAS mean changes (ACR patient assessment) (2 × 100 mg b.i.d., week 1, LOCF, 12 weeks results): −20.0
- Subject VAS mean changes (ACR patient assessment) (2 × 100 mg b.i.d., week 2, LOCF, 12 weeks results): −25.5
- Subject VAS mean changes (ACR patient assessment) (2 × 100 mg b.i.d., week 2, LOCF, 24 weeks results): −25.5
- Subject VAS mean changes (ACR patient assessment) (2 × 100 mg b.i.d., week 4, LOCF, 12 weeks results): −28.6
- Subject VAS mean changes (ACR patient assessment) (2 × 100 mg b.i.d., week 4, LOCF, 24 weeks results): −28.2
- Subject VAS mean changes (ACR patient assessment) (2 × 100 mg b.i.d., week 8, LOCF, 12 weeks results): −32.8
- Subject VAS mean changes (ACR patient assessment) (2 × 100 mg b.i.d., week 8, LOCF, 24 weeks results): −33.0
- Subject VAS mean changes (ACR patient assessment) (2 × 100 mg b.i.d., week 12, LOCF, 12 weeks results): −35.6
- Subject VAS mean changes (ACR patient assessment) (2 × 100 mg b.i.d., week 12, LOCF, 24 weeks results): −35.6
- Subject VAS mean changes (ACR patient assessment) (2 × 100 mg b.i.d., week 16, LOCF, 24 weeks results): −37.9
- Subject VAS mean changes (ACR patient assessment) (2 × 100 mg b.i.d., week 20, LOCF, 24 weeks results): −39.1
- Subject VAS mean changes (ACR patient assessment) (2 × 100 mg b.i.d., week 24, LOCF, 24 weeks results): −39.1
